Reference: ChEMBL document CHEMBL5727968, “3-phenyl-pyrazole derivatives as modulators of the 5-HT2A serotonin receptor useful for the treatment of disorders related thereto” (2020)

Target: 5-hydroxytryptamine receptor 2A (Homo sapiens, UniProt P28223)
Assay: [125I]DOI Radioligand Binding Assay: Radioligand binding assays for human 5-HT2A receptor was conducted using the 5-HT2 agonist [125I]DOI as radioligand. To define nonspecific binding, 10 μM DOI was used for all assays. For competitive binding studies, 0.5 nM [125I]DOI was used and compounds were assayed over a range of 0.01 nM to 10 μM. Assays were conducted in a total volume of 200 μl in 96-well Perkin Elmer GF/C filter plates in assay buffer (50 mM Tris-HCl, pH 7.4, 0.5 mM EDTA, 5 mM MgCl2, and 10 μM pargyline). Assay incubations were performed for 60 min at room temperature and were terminated by rapid filtration under vacuum pressure of the reaction mixture over Whatman GF/C glass fiber filters presoaked in 0.5% PEI using a Brandell cell harvestor. Filters were then washing several times with ice-cold wash buffer (50 mM Tris-HCl, pH 7.4). Plates were then dried at room temperature and counted in a Wallac microBeta scintillation counter.

Sequence of 5-hydroxytryptamine receptor 2A (P28223 whole entry): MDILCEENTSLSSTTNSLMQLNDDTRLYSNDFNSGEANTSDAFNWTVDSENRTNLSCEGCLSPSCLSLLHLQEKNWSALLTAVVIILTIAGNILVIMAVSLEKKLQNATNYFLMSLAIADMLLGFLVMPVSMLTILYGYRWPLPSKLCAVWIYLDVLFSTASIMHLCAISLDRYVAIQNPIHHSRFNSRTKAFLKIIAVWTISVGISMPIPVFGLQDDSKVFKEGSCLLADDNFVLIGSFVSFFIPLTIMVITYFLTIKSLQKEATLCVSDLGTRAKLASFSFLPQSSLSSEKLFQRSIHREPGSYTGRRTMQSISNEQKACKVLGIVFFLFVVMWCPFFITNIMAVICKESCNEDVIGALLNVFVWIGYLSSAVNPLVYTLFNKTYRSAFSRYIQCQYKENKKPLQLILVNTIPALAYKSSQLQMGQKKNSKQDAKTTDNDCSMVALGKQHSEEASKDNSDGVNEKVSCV

Row | IC50 | Structure (SMILES)
1 | 10.2 nM | Cn1nccc1-c1cc(NC(=O)NCc2ccc(Cl)cc2)ccc1OCCN1CCCC1
2 | 13.7 nM | Cn1nccc1-c1cc(NC(=O)Cc2ccc(F)cc2)ccc1OCCN1CCCCC1
3 | 1.1 nM | CCC(C)OC(=O)Nc1ccc(OCCN2CCCC2)c(-c2c(Br)cnn2C)c1 (stereo not drawn)
